Experimental findings from US9981037B2, “Combination therapy of beta-glycolipids and antibodies for the treatment of immune-related disorders” (HADASIT MEDICAL RESEARCH SERVICES AND DEVELOPMENT LTD., priority 2008, dated 2018) are described below.

In data set [1] the test system is ob/ob mice. Kind of data set: Metabolic syndrome model in ob/ob mice: serum glucose, AST, ALT, cholesterol, weight after oral feeding. The format is in vivo. As to the method:
Mice were fed a total volume of 0.2 ml by gastric intubation with an 18-gauge stainless steel feeding needle (Thomas Scientific). Mice were fed once a day for five consecutive days with either phosphate-buffered saline (PBS), hamster isotype control (IC 5 μg/feeding), anti CD3 antibody (5 ug/feeding), or β-glucosylceramide (GC), 100 μg/feeding (dissolved in ethanol and emulsified in PBS). Mice fed with the combination of anti-CD3 and GC received 5 ug anti-CD3 and 100 ug GC in 0.2 ml PBS. Mice were injected IP with 100 μg anti TGF-β one day before the feeding and than on alternative days another 4 injections, a total of 500 μg.
Sera from individual mice were obtained. Serum AST and ALT levels were measured by an automatic analyzer.
In order to investigate the potential effect of combining two different immune-modulatory compounds on an immune-related disorder such as the metabolic syndrome, the ob/ob leptin deficient mice that manifest insulin resistance, hypelipidemia, fatty liver, and diabetes, were used as an animal model.
Four groups of ob/ob mice were tested, groups 1 and 2 served as control groups (group of untreated mice and group of mice treated with GC and Isotype Control, respectively), group 3 were treated with anti CD3 (5 microgram) antibody and group 4 were orally administered with a combination of anti-CD3 (5 μg) antibody and β-glucosylceramide (GC, 100 μg) per dose for five consecutive days. Animals were assessed on days 10 and 28. The doses studied were based on previous studies of anti-CD3 and GC in animal models [Ochi, H., et al. Nat. Med. 12:627-635 (2006); Zigmond, E. et al. Gut 56:82-89 (2007); Ilan, Y. et al. Transplantation 83:458-467 (2007)]. Determination of hepatic fat content and inflammation was performed by measurement of serum Alanine aminotransferase (ALT) and Aspartate aminotransferase (AST) levels. Serum glucose and cholesterol levels were also assessed.

The next data set has as its system DCs from MLN. The data set can be described thus: TGF-β and IL-10 expression in CD11C+ DCs from MLN by RT PCR. To be noted: RT PCR relative to GAPDH; 3 days after feeding; reversed by anti-TGF-β. The format is in vivo, mice. As to the method: MLN CD11C+ DCs were isolated by magnetic separation using anti CD11C microbeads (Miltenyi Biotec). Total RNA was isolated from cell pellets using the RNA easy Mini Kit (QIAGEN) and stored at −80° C. First strand cDNA synthesis was performed on 0.5-1 μg of total RNA for each RNA sample using Taqman reverse transcription reagents. The cDNA was amplified using sequence specific primers for IL-10, and TGF-β and real-time PCR mix (Applied Biosystems) in an ABI7500 cycler. The GAPDH gene was used as an endogenous control to normalize for differences in the amount of total RNA in each sample. All values were expressed as a fold increase or decrease relative to the expression of GAPDH.
To investigate the effect of feeding the anti-CD3 plus GC combination on DCs, the inventors first measured the expression of TGF-β and IL-10 in DCs from MLN. […] Injection of anti-TGF-β reversed the effect. The inventors then investigated the effect of DCs obtained from animals treated with the oral combination of anti-CD3 plus GC, or from the control PBS treated animals, on T-cells harvested from mice fed either with PBS or with the combination of anti-CD3 plus GC. T cells were stimulated with anti-CD3 in vitro. […]

For data set [2], the system named is ob/ob mice. Kind of data set: Pathologic analysis of pancreas, liver and muscle of ob/ob mice. The format is in vivo. The note with it: vs PBS. As to the method:
The liver, pancreas, and muscle were removed from control or treated mice and placed in 4% formalin followed by paraffin embedding. Five sections were prepared from each organ. The tissues were stained for heamtoxylin eosin and liver sections were additionally stained with oil-red-o. All sections were blindly scored by a pathologist.
The inventors next investigated the beneficial effect of the combined oral composition of anti-CD3 plus GC treatment of ob/ob mice by pathologic analysis of pancreas, liver and muscle. […] In addition, a reversal of muscle fiber thinning and increased nuclei was clearly observed in animals treated with the oral combination of anti-CD3 plus GC.

The test system of the next data set is MLN cells. The data set can be described thus: Cytokine production (ELISA) by MLN cells or splenocytes of fed ob/ob mice stimulated in vitro with anti-CD3. The format is in vivo. The note with it: in vitro 1 μg/ml anti-CD3 stimulation; vs PBS. As to the method: For cytokine assays, splenocytes or MLN cells were grown (10^6 cells per well) in serum-free medium X-VIVO 20 (BioWhittaker) with 1 ug/ml soluble anti-CD3 antibody. Supernatants were collected after 40 h for IL-2, IL-4, IL6, IL-10, IFN-γ, and IL-17, or after 72 h for TGF-β and quantitative ELISA was performed using paired antibodies and recombinant cytokines obtained from PharMingen according to their recommendations. When purified T-cells ([…] cells per well) were checked for cytokine secretion, they were stimulated with 1 ug/ml anti-CD3 in the presence of DCs (10×10^3 cells per well) for 40 or 72 h and the cytokine content in the supernatant was measured as outlined above. The tissue cytokine profile was determined for gut, liver, and pancreas. Part of the organ was weighed and homogenized on ice with TISSUEMISER (Fisher Scientific) in buffer containing PBS/BSA/TWEEN and protein inhibitor tablets (Roche). […]
To investigate the potential mechanisms by which oral combination of anti-CD3 plus GC affected the metabolic abnormalities describe above, the inventors next measured cytokine production by MLN cells obtained from the different experimental groups, that were then stimulated in vitro with 1 μg/ml anti-CD3 for five days. […] The inventors next measured cytokine levels in supernatants from homogenized tissues from ob/ob treated mice. […]

Turning to β-glucosylceramide [GC], the weight of animals result with ob/ob mice [1] (compared to control) is “No change”. Further, the “serum AST levels” value with ob/ob mice [1] (ob/ob mice fed daily for 5 days, 10 days after last feeding, PBS 416 U/l) is 310 U/l. Moreover, in the data set with ob/ob mice [1] (ob/ob mice fed daily for 5 days, PBS 218 mg %), the Serum cholesterol levels is 225 mg %. In addition, the blood glucose in the data set on ob/ob mice [1] (ob/ob mice fed daily for 5 days, tested 10 days after last feeding, PBS 367 mg %) was determined as 337 mg %. In addition, in the data set on DCs from MLN, the “IL-10 expression in DCs from MLN” value is given as “not” and the “TGF-β expression in DCs from MLN” value is reported as “not”. For the same substance, in the data set on ob/ob mice [2], the hepatic fat accumulation entry is given as “some effect” and the pancreatic hyperplasia entry is given as “some effect”. Besides, in the data set on MLN cells, the “production of IL-10 by MLN cells” value is “No effects” and the “production of TGF-β by MLN cells” value is “No effects”.
